From ChEMBL document CHEMBL5506056, “Discovery of Novel Azaindoles as Potent and Selective PI3Kδ Inhibitors for Treatment of Multiple Sclerosis” (J Med Chem, 2024)

Tests used:
[1] = biological target: Phosphatidylinositol 4,5-bisphosphate 3-kinase catalytic subunit beta isoform (Homo sapiens, UniProt P42338); experiment: Inhibition of PI3Kbeta (unknown origin) using PIP2 as substrate incubated for 1 hr by ADP-Glo assay
[2] = biological target: Phosphatidylinositol 4,5-bisphosphate 3-kinase catalytic subunit gamma isoform (Homo sapiens, UniProt P48736); experiment: Inhibition of PI3Kgamma (unknown origin) using PIP2 as substrate incubated for 1 hr by ADP-Glo assay
Sequence of Phosphatidylinositol 4,5-bisphosphate 3-kinase catalytic subunit gamma isoform (P48736 whole entry, canonical isoform): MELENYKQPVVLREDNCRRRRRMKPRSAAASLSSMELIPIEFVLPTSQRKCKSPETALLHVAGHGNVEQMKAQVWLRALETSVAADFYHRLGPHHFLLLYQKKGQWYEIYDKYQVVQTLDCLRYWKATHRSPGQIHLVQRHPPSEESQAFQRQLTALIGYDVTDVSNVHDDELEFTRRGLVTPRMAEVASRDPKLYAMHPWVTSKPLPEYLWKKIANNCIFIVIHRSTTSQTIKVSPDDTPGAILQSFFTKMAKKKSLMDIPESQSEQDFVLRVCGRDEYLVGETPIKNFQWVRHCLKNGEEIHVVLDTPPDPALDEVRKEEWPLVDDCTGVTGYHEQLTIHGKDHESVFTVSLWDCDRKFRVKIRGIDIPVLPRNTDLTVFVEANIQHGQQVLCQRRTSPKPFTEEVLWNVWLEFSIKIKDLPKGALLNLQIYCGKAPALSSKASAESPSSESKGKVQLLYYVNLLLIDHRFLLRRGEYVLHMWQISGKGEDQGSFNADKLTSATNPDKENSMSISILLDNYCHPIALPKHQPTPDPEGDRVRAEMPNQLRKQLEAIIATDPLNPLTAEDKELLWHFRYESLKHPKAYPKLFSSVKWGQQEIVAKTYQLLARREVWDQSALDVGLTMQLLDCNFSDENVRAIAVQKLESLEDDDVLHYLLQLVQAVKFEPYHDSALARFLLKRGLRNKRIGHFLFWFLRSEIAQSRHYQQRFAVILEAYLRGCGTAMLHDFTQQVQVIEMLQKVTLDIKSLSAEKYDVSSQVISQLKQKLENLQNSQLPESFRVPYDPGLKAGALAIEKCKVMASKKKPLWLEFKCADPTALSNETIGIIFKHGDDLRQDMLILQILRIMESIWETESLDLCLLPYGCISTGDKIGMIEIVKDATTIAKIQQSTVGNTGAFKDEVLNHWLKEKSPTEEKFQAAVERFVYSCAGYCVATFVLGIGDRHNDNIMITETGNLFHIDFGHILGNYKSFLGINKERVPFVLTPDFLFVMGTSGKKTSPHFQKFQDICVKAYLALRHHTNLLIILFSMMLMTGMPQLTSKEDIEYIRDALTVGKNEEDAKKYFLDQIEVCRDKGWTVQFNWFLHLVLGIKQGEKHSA

[3] = biological target: Phosphatidylinositol 4,5-bisphosphate 3-kinase catalytic subunit alpha isoform (Homo sapiens, UniProt P42336); experiment: Inhibition of PI3Kalpha (unknown origin) using PIP2 as substrate incubated for 1 hr by ADP-Glo assay
Sequence of Phosphatidylinositol 4,5-bisphosphate 3-kinase catalytic subunit alpha isoform (P42336 whole entry, canonical isoform): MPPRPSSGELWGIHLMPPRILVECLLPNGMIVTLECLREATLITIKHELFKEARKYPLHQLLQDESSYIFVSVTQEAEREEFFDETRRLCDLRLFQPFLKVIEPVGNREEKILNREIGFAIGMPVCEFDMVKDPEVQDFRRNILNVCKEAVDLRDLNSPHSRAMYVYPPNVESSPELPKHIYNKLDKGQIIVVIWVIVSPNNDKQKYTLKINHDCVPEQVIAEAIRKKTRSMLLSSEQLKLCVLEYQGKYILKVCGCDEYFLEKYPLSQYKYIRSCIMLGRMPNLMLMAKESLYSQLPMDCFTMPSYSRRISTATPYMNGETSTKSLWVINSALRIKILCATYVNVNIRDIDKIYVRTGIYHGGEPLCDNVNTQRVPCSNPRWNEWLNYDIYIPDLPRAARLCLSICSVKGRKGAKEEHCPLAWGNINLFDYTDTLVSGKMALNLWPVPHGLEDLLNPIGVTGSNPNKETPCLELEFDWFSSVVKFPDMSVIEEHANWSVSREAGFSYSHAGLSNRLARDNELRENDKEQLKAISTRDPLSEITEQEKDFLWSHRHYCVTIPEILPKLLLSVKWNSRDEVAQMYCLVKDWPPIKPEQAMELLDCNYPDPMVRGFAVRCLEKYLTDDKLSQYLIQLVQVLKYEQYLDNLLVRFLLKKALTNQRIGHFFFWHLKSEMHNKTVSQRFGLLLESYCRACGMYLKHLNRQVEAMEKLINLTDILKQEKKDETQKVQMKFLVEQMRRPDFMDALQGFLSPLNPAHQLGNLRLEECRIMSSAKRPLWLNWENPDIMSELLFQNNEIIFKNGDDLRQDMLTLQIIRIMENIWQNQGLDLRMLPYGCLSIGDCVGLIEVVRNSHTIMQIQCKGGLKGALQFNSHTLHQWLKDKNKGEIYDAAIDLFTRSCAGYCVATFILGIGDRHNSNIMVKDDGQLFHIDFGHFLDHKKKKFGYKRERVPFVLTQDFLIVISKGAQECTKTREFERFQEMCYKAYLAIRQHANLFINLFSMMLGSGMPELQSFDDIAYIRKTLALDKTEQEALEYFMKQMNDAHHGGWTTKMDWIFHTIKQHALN

[4] = Inhibition of mouse CD3-positive T cell activation pre-stimulated with anti-CD3/anti-CD28 followed by compound treatment by flow cytometry
[5] = Inhibition of mouse CD3-positive T cell proliferation pre-stimulated with anti-CD3/anti-CD28 followed by compound treatment by flow cytometry

Sequence of Phosphatidylinositol 4,5-bisphosphate 3-kinase catalytic subunit beta isoform (P42338 whole entry, canonical isoform): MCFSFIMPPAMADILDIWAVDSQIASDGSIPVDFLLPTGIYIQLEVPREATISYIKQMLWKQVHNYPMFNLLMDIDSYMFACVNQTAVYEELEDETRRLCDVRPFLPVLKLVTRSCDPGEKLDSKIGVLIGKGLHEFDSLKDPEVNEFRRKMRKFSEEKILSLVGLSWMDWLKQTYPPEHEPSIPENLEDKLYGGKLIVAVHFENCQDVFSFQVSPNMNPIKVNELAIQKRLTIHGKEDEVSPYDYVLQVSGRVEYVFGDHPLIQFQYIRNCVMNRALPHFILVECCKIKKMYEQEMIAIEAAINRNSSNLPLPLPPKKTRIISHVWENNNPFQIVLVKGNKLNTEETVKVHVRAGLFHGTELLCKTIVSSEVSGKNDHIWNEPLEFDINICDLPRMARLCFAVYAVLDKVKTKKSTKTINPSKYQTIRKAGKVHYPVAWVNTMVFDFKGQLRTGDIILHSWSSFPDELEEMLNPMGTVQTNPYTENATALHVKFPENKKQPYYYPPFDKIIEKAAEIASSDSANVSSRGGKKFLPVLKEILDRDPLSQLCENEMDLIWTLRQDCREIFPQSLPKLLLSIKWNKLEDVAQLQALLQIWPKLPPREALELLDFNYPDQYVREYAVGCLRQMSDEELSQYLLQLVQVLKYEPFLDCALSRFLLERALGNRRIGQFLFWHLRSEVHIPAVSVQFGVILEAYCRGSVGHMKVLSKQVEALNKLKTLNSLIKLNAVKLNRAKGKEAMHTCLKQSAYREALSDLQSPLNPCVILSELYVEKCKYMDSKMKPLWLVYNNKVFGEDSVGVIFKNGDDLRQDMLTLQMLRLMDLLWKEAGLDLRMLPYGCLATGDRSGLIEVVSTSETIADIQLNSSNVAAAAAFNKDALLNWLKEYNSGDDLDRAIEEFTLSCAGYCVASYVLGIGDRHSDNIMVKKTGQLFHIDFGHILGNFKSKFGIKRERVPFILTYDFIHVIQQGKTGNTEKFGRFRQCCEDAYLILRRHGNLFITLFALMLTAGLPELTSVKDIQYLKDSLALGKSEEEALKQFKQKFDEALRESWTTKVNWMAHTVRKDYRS

| IC50 [1] | IC50 [2] | IC50 [3] | IC50 [4] | SMILES | IC50 [5] |
| --- | --- | --- | --- | --- | --- |
| 2.36 µM | > 10 µM | > 10 µM |  | C[C@@H](Nc1nc(N)nc(N)c1C#N)c1cn(-c2cccnc2)c2cc(Cl)cnc12 (racemic) |  |
| > 10 µM | > 10 µM | > 10 µM |  | CC(Nc1nc(N)nc(N)c1C#N)c1cn(-c2cccnc2)c2cc(Cl)cnc12 (stereo unspecified) |  |
| 1.66 µM | > 10 µM | 7.03 µM |  | C[C@H](Nc1nc(N)nc(N)c1C#N)c1cn(-c2cccnc2)c2cc(Cl)cnc12 |  |
|  |  |  | > 10 µM | CC[C@H](Nc1ncnc2[nH]cnc12)c1nc2cccc(F)c2c(=O)n1-c1ccccc1 [IDELALISIB] | 8.97 µM |
